Results reported in patent publication US7247734B2 (Vernalis (Cambridge) Limited, priority 2001, dated 2007).

Tests used:
HSP70 in HCT116 cells = test: Cell-based ELISA for HSP70 expression; parameters: species or system human; conditions: for % increase in HSP70 (Normalised Europium Counts compared to DMSO controls): HCT116, 10 μM compound
Description: Cell-based ELISA methods (see, e.g., Stockwell et al., 1999; Versteeg et al., 2000) offer several advantages for evaluating the pharmacodynamic effects of novel mechanism-based inhibitors and may be the method of choice for comparing inhibitors that are identified during the iterative process of lead identification and optimisation. The technique can be used to rapidly rank the effectiveness of compounds as well as to investigate the molecular mechanisms of their action. The increased sample throughput possible with ELISA means that compounds can be simultaneously studied in multiple replicates at different doses and exposure times. […] The assays are carried out directly on cells grown and treated in microtitre plates, thereby removing the necessity for preparing cell lysates. ELISA techniques can in theory be applied to any cellular protein or post-translational modification for which an antibody is available and results are at least semi-quantitative.
Chemicals are of the highest purity commercially available. • (1) Human colon tumour cell lines (e.g., HCT116 and HT29 from American Tissue Culture Collection, ATCC) grown in Dulbecco's modified Eagle's medium (DMEM) (CSSD, Institute of Cancer Research, London, UK) supplemented with […] glucose, 10% foetal bovine serum (FBS), 200 mM L-glutamine, and 5 ml non-essential amino acids in a humidified atmosphere of 5% CO2 at 37° C. • (2) 96 well Falcon clear microtitre tissue culture plates (BD Labware, Hospital Management and Supplies, Ltd., Northampton, UK). • (3) DMSO diluted in dH2O (8%). • (4) HSP90 inhibitors at required concentration dissolved in DMSO. • (5) Fixing solution (0.25% glutaraldehyde, 3% paraformaldehyde and 0.25% Triton-X 100) (all from Sigma Aldrich Ltd, Poole, UK). • (6) Blocking solution (5% dried milk (Marvel) in PBS) prepared daily. • (7) Anti HSP70 monoclonal antibody (SPA 810, Bioquote, York, UK). • (8) DELFIA® wash buffer, enhancement solution, assay buffer and Europium labelled anti-mouse IgG (1244–1330) (PerkinElmer Life Sciences, Milton Keynes, UK). • (9) BCA protein assay reagents (Perbio Science UK Ltd., Chester, UK). Method
Incubate at 37° for 30 min. • (6) Wash plates twice in PBS using an automated washer (Wellwash 5000 ten plate stacker-washer or Wellwash Ascent single plate washer, Thermo Labsystems, Basingstoke, UK). • (7) Block the plates by addition of blocking solution (100 μl) and incubate for 30 min. • (8) Add 100 μl primary antibody diluted to 0.95 μg/ml in PBS to each well and incubate plate for 1.5 h. Wash plates once with DELFIA® wash solution. • (9) Add 100 μl Europium labelled anti-mouse IgG diluted in DELFIA® assay buffer to 75 ng/ml and incubate for 1 hour. Wash plates once with DELFIA® wash solution as before. • (10) Add 100 μl DELFIA® enhancement solution to each well. • (11) Measure the fluorescence (615 nm) in Victor 2 1420 multilabel counter (Perkin Elmer Life Sciences, Milton Keynes, UK) using time-resolved measurement mode. • (12) Wash plates once with PBS and measure protein concentration by the addition of 200 μl BCA reagent to each well, shake for 1–2 min and incubate for 30 mins at 37° C. Read absorption at 570 nm. • (13) Express ELISA results by normalising to protein in the well (Eu counts (cpm) divided by OD@ 570 nm). Compare the effect of HSP90 inhibitors on HSP70 expression with DMSO treated controls. Comments • (1) Cells plated into 96 well plates are incubated in a plastic box to reduce evaporation from the outside wells. […]

[1] = tested on: HT29 human colon tumour cells; test: 96 h growth inhibition assay (SRB), HT29; type: cell-based; conditions: Homo sapiens, HT-29; HT29, 96 h
Procedure: (§1) The growth inhibition assay employed was based on that described previously (Kelland et al., 1993). HCT116 and HT29 human colon tumour cells (American Tissue Culture Collection) were seeded into 96-well tissue culture plates (approximately 1600–2000 cells per well) and allowed to attach for 36 hours. Eight wells were treated with a single concentration from a range of compound concentrations and incubated for 96 hours. Cells were fixed using ice cold 10% trichloroacetic acid (TCA). Plates were then washed five times with water, air dried, and stained with 0.4% sulphorhodamine B (SRB) in 1% acetic acid for 10 minutes. The SRB stain was solubilised in 10 mM Tris-HCl and the absorbance measured at 540 nm using a Titertek Multiscan MCC/340 MKII plate reader (Flow Laboratories, IEC, Basingstoke, N.H.). The absorbance values correspond to total protein content and are used as a measure of cell growth.

[2] = tested on: HCT116 human colon tumour cells; test: 96 h growth inhibition assay (SRB), HCT116; type: cell-based; conditions: Homo sapiens, HCT-116; HCT116, 96 h
Procedure: as §1

| Compound | % increase in HSP70 (Normalised Europium Counts compared to DMSO controls) (HSP70 in HCT116 cells; (48 h)) [%] | % increase in HSP70 (Normalised Europium Counts compared to DMSO controls) (HSP70 in HCT116 cells; (time not given)) [%] | IC50 [1] [µM] | IC50 [2] [µM] | HSP70 induction (HSP70 in HCT116 cells; HCT116, 10 μM, 48 h) |
| --- | --- | --- | --- | --- | --- |
| Cc1[nH]nc(-c2ccc(O)cc2O)c1-c1ccc2c(c1)OCCO2 [CCT018157] | 103 | 105 | 14 | 26 | – |
| CCc1cc(-c2n[nH]c(C)c2-c2ccc3c(c2)OCCO3)c(O)cc1O [CCT018159, 4-[4-(2,3-Dihydro-benzo[1,4]dioxin-6-yl)-5-methyl-1H-pyrazol-3-yl]-6-ethyl-benzene-1,3-diol] | 278 | 158 | 13.5 | 4.5 | up to 2.8 fold |
